The source made the active and inactive calls.
Key:
[1] = biological target: T1, Runt-related transcription factor 1/Core-binding factor subunit beta (Homo sapiens, UniProt Q01196+Q13951); assay: Confirmation of compounds inhibiting the binding between the RUNX1 Runt domain and CBFb-SMMHC via a fluorescence resonance energy transfer (FRET) assay. [Related pubchem assays (depositor defined):AID1434, AID1438, AID1496, AID1550, AID1645]; assay type: protein assay
[2] = biological target: T1, Runt-related transcription factor 1/Core-binding factor subunit beta; assay: disruptors of Runt domain/CBFb-SMMHC interaction – biochemical, FRET, Cerulean-Runt, Venus-CBFb-SMMHC, uHTS, […] (AID 1434); assay type: protein assay
[3] = biological target: T1, Runt-related transcription factor 1/Core-binding factor subunit beta; assay: Runt domain/CBFb-SMMHC interaction disruptors – biochemical, TR-FRET (AID 1438); assay type: protein assay
Caspase-3 = biological target: T2, Caspase-3 (Homo sapiens, UniProt P42574); assay type: functional;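 note: Dose-response selectivity test against caspase-3 for candidate inhibitors of sentrin-specific proteases (SENPs)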
T2 sequence (P42574 whole entry): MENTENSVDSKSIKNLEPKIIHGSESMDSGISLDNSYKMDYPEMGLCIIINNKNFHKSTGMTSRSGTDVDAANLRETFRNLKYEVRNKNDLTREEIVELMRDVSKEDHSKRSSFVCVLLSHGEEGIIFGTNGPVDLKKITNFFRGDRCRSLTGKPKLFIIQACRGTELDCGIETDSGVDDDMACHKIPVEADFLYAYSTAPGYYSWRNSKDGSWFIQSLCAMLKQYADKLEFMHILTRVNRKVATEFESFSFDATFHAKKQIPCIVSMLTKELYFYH

[4] = biological target: T3, Sentrin-specific protease 7 (Homo sapiens, UniProt Q9BQF6); assay type: functional;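 note: Luminescence-based dose-response confirmation of ultra-high-throughput screening hits, measuring inhibition of SENP7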
T3 sequence (Q9BQF6 whole entry): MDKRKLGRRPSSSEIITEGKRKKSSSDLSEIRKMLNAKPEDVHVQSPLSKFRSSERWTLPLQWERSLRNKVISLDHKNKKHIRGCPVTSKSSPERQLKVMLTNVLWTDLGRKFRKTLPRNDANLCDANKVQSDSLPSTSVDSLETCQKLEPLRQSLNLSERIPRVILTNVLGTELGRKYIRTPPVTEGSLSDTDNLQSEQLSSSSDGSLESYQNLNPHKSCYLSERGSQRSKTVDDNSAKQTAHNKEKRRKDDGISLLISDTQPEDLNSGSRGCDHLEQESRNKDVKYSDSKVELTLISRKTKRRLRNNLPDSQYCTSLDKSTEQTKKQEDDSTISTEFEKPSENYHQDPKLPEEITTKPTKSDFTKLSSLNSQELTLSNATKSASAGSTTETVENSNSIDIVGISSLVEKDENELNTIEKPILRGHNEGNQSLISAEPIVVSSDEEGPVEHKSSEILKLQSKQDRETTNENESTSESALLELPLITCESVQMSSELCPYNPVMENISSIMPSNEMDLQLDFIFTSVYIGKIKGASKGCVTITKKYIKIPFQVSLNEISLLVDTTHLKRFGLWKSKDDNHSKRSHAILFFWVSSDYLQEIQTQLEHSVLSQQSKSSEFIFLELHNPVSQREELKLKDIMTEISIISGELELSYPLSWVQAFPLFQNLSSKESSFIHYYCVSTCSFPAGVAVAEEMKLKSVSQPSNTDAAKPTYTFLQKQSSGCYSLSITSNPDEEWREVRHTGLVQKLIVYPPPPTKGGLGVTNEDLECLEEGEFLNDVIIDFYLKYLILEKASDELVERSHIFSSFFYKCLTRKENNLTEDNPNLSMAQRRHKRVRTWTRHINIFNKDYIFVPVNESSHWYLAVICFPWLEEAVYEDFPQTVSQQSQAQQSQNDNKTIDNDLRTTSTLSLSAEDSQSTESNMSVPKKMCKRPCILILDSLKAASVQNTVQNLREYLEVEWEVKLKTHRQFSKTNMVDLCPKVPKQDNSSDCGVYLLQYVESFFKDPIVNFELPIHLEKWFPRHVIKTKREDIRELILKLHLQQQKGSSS

[5] = biological target: T4, Sentrin-specific protease 6 (Homo sapiens, UniProt Q9GZR1); assay type: functional;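 note: Luminescence-based dose-response confirmatory assay of SENP6 inhibition, following up an ultra-high-throughput screen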
T4 sequence (Q9GZR1 whole entry): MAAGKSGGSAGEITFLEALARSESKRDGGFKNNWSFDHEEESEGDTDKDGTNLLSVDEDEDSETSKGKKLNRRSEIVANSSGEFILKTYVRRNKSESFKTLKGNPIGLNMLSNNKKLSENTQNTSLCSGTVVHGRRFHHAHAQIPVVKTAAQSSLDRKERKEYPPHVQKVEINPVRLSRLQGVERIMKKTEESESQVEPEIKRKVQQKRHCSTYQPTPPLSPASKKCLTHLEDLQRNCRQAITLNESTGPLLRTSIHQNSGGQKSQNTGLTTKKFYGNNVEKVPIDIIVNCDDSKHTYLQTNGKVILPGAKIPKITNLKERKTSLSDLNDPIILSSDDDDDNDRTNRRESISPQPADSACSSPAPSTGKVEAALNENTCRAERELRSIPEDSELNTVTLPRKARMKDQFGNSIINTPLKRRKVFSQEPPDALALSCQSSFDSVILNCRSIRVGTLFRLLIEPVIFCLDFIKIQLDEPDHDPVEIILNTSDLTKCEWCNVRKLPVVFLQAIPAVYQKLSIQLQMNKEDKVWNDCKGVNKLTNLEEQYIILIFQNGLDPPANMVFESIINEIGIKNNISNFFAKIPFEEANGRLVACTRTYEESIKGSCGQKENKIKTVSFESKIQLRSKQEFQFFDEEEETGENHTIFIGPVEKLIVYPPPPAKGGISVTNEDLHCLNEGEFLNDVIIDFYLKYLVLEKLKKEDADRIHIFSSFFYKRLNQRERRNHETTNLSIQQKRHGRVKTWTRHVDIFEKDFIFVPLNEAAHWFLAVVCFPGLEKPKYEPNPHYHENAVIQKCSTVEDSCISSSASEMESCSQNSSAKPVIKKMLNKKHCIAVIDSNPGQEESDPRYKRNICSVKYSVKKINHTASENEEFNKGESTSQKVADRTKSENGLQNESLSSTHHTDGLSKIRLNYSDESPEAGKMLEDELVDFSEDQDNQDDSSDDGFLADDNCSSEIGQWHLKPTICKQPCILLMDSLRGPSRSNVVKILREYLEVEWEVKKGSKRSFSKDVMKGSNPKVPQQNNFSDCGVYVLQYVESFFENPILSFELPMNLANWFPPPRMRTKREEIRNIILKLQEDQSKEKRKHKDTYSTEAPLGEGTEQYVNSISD

[6] = biological target: T5, Sentrin-specific protease 8 (Homo sapiens, UniProt Q96LD8); assay type: functional;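 note: luminescence read-out of SENP8 inhibition, dose-response confirmation following an ultra-high-throughput screen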
T5 sequence (Q96LD8 whole entry): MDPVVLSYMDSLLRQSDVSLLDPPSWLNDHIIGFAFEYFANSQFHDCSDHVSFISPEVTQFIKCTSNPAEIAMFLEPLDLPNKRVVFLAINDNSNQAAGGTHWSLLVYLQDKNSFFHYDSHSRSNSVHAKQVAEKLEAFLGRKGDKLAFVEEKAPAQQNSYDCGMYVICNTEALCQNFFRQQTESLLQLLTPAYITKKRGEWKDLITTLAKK

[7] = biological target: T6, Peroxisome proliferator-activated receptor gamma (Homo sapiens, UniProt P37231); assay: competitive ligand displacement at PPARg – biochemical, TR-FRET, LanthaScreen, PPARg partial agonist project, dose response (AID 504446)
T6 sequence (P37231 whole entry): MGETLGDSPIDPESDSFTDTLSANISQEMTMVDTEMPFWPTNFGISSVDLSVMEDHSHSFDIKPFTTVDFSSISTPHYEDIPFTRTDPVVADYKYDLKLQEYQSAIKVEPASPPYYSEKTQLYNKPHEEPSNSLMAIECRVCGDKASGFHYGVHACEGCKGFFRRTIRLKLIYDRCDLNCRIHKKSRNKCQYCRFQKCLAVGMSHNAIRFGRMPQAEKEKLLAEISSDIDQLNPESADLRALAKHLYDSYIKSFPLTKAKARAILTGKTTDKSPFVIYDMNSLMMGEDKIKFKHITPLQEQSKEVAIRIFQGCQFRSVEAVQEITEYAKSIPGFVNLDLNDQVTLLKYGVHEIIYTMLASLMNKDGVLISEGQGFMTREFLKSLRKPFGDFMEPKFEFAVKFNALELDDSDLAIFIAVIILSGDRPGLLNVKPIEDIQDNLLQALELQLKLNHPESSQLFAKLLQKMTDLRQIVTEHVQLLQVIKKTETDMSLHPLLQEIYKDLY

[8] = biological target: T6, Peroxisome proliferator-activated receptor gamma; assay: PPARg transcriptional activation, reporter cells – cell-based, luminescence, assay provider, dose response (AID 504447); assay type: functional
[9] = biological target: Peroxisome proliferator-activated receptor alpha (Homo sapiens, UniProt Q07869); assay: Late stage assay provider counterscreen for partial agonists of the peroxisome proliferator-activated receptor gamma (PPARg): Luminescence-based cell-based dose response assay for partial agonists of the peroxisome proliferator-activated receptor alpha (PPARA). [Related pubchem assays (depositor defined):AID1051, AID1300, AID1319, AID1679, AID1808, AID504446, AID504447, AID504452, AID504453, AID631]; assay type: functional
Chain of Peroxisome proliferator-activated receptor alpha (Q07869 whole entry): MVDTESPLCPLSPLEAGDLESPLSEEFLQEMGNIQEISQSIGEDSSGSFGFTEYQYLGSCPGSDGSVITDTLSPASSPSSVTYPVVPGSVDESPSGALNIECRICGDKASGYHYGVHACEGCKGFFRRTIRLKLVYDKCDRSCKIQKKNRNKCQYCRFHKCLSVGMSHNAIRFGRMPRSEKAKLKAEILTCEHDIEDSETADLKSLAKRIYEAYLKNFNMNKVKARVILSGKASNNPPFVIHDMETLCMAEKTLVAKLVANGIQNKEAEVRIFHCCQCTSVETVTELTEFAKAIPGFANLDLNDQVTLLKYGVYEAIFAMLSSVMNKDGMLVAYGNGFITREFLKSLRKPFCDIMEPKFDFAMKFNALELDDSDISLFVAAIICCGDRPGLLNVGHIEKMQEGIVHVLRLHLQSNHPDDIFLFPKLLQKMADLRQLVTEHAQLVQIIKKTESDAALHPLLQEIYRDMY

T1 sequence (Q01196 whole entry, the tested form may be a part): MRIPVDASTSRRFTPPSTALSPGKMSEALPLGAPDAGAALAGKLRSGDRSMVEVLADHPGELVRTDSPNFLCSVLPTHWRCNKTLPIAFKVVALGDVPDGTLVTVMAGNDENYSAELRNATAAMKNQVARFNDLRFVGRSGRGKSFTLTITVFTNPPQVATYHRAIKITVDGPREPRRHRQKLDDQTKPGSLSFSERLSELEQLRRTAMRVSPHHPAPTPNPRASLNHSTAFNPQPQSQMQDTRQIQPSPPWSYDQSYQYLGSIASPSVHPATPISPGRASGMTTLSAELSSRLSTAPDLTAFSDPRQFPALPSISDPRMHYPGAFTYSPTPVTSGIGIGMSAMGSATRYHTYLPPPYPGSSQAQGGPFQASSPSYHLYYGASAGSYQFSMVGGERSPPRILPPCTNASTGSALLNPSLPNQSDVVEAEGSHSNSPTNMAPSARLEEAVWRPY
T1 sequence (Q13951 whole entry, the tested form may be a part): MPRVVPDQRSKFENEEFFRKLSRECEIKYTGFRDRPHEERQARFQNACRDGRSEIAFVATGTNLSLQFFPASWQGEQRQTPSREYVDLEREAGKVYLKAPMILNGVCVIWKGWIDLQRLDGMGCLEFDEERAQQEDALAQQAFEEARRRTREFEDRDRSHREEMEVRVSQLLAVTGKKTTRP

| IC50 [7] | EC50 [8] | EC50 [9] | Compound | IC50 [1] | IC50 [2] | IC50 [3] | IC50 (Caspase-3) | IC50 [4] | IC50 [5] | IC50 [6] |
| --- | --- | --- | --- | --- | --- | --- | --- | --- | --- | --- |
|  |  |  | O=S(=O)(Nc1ccc(-c2nc3cccnc3s2)cc1)c1ccc(Cl)s1 | 1.87 µM (active) | 5.46 µM (active) | 24 µM (active) | 31.2 µM (active) | 18.8 µM (active) | 25 µM (active) | 29.1 µM (active) |
| 2.5 µM (active) | 1.5 µM (active) | 0.057 µM (active) | O=C(O)CCN1C(=O)/C(=C/c2ccc(F)cc2F)SC1=S |  |  |  |  |  |  |  |

Source: ChEMBL document CHEMBL1201862, “PubChem BioAssay data set” (2004)
